Reference: ChEMBL document CHEMBL4028801, “A multifactorial approach to hepatobiliary transporter assessment enables improved therapeutic compound development” (Toxicol Sci, 2013)
Counter-ions that a name gives are not always drawn.

Tests used:
Bile salt export pump = Bile salt export pump (Homo sapiens, UniProt O95342); assay: Inhibition of human BSEP overexpressed in Sf9 cell membrane vesicles assessed as uptake of [3H]-taurocholate in presence of ATP measured after 15 to 20 mins by membrane vesicle transport assay; assay type: ADME, cell-based
[1] = biological target: ATP-binding cassette sub-family C member 2 (Homo sapiens, UniProt Q92887); assay: Inhibition of human MRP2 overexpressed in Sf9 cell membrane vesicles assessed as uptake of [3H]-estradiol-17beta-D-glucuronide in presence of ATP and GSH measured after 20 mins by membrane vesicle transport assay
[2] = biological target: T1, ATP-binding cassette sub-family C member 4 (Homo sapiens, UniProt O15439); assay: Inhibition of human MRP4 overexpressed in Sf9 cell membrane vesicles assessed as uptake of [3H]-estradiol-17beta-D-glucuronide in presence of ATP and GSH measured after 20 mins by membrane vesicle transport assay; assay type: ADME, cell-based
T1 sequence (O15439 whole entry): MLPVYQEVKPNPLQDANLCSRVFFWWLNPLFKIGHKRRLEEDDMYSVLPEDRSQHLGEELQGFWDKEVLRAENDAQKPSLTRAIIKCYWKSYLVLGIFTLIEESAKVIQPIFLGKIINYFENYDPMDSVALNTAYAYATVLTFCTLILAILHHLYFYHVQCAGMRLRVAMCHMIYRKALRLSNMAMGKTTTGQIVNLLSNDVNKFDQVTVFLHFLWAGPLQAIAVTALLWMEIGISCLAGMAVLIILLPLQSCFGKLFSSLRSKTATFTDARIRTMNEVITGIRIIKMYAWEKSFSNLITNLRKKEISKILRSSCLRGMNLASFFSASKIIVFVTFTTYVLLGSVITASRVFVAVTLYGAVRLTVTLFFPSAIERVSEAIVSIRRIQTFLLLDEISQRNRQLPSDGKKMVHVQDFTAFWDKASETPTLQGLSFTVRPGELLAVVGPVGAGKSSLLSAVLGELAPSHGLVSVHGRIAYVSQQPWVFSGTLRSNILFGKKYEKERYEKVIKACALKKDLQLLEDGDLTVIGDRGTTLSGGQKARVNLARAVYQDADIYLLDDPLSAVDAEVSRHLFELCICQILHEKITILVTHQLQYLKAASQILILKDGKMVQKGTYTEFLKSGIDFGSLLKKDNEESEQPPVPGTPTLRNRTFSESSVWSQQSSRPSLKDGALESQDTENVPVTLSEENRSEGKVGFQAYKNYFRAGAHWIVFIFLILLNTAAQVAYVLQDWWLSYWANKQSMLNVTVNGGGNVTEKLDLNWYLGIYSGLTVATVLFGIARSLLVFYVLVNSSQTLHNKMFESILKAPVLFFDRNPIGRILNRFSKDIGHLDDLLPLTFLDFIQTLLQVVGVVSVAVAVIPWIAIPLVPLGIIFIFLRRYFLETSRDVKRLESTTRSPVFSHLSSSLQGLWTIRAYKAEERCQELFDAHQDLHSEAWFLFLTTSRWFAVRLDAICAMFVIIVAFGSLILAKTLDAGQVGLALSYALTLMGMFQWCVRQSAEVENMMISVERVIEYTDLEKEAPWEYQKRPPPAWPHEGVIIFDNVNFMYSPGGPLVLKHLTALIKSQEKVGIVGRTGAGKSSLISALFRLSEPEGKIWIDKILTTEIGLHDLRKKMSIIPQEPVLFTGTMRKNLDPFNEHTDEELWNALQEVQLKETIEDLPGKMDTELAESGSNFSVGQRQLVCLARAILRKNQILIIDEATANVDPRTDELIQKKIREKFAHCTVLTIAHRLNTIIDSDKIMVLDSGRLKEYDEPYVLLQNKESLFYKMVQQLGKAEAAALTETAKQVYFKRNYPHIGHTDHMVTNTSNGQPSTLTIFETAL

[3] = biological target: ATP-binding cassette sub-family C member 3 (Homo sapiens, UniProt O15438); assay: Inhibition of human MRP3 overexpressed in Sf9 insect cell membrane vesicles assessed as uptake of [3H]-estradiol-17beta-D-glucuronide in presence of ATP and GSH measured after 10 mins by membrane vesicle transport assay; assay type: ADME, cell-based
Sequence of ATP-binding cassette sub-family C member 3 (O15438 whole entry): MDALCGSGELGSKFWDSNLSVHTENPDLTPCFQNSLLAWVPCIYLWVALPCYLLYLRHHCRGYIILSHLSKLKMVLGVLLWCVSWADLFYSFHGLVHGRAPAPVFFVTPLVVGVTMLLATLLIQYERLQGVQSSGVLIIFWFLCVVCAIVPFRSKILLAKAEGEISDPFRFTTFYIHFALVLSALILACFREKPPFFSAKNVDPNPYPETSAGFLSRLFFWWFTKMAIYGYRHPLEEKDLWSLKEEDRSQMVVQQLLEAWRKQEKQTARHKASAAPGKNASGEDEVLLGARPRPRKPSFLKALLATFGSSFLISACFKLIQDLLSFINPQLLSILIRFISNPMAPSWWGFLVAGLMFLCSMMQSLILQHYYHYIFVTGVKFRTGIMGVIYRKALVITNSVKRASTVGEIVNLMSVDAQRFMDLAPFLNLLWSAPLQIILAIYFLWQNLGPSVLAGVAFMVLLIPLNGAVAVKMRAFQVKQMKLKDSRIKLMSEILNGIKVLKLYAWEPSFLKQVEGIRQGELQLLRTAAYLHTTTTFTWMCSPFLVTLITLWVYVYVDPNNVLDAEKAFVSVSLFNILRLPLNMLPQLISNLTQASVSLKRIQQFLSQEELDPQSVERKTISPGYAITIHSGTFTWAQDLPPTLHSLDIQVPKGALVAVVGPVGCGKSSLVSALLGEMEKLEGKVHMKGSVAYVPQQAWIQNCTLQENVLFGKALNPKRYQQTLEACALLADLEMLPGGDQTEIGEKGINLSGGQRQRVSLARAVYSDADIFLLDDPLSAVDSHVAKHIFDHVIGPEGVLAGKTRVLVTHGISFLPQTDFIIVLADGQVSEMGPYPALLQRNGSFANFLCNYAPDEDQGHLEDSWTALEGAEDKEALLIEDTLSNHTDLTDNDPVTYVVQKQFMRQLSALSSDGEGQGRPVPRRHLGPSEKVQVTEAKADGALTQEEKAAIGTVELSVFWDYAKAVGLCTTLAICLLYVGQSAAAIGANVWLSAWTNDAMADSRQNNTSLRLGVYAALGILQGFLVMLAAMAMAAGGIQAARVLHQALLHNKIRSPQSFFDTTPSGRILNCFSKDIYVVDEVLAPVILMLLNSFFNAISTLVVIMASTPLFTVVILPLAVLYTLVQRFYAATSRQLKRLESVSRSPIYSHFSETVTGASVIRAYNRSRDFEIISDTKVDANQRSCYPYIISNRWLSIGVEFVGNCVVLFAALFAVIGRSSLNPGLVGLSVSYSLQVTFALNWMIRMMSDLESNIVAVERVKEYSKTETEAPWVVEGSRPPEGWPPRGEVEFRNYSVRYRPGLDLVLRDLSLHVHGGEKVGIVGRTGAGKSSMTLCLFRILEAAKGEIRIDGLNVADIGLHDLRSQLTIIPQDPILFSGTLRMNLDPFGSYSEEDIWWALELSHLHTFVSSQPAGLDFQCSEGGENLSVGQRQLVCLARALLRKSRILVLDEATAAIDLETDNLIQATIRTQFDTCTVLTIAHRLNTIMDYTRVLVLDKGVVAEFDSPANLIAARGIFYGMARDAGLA

Sequence of ATP-binding cassette sub-family C member 2 (Q92887 whole entry): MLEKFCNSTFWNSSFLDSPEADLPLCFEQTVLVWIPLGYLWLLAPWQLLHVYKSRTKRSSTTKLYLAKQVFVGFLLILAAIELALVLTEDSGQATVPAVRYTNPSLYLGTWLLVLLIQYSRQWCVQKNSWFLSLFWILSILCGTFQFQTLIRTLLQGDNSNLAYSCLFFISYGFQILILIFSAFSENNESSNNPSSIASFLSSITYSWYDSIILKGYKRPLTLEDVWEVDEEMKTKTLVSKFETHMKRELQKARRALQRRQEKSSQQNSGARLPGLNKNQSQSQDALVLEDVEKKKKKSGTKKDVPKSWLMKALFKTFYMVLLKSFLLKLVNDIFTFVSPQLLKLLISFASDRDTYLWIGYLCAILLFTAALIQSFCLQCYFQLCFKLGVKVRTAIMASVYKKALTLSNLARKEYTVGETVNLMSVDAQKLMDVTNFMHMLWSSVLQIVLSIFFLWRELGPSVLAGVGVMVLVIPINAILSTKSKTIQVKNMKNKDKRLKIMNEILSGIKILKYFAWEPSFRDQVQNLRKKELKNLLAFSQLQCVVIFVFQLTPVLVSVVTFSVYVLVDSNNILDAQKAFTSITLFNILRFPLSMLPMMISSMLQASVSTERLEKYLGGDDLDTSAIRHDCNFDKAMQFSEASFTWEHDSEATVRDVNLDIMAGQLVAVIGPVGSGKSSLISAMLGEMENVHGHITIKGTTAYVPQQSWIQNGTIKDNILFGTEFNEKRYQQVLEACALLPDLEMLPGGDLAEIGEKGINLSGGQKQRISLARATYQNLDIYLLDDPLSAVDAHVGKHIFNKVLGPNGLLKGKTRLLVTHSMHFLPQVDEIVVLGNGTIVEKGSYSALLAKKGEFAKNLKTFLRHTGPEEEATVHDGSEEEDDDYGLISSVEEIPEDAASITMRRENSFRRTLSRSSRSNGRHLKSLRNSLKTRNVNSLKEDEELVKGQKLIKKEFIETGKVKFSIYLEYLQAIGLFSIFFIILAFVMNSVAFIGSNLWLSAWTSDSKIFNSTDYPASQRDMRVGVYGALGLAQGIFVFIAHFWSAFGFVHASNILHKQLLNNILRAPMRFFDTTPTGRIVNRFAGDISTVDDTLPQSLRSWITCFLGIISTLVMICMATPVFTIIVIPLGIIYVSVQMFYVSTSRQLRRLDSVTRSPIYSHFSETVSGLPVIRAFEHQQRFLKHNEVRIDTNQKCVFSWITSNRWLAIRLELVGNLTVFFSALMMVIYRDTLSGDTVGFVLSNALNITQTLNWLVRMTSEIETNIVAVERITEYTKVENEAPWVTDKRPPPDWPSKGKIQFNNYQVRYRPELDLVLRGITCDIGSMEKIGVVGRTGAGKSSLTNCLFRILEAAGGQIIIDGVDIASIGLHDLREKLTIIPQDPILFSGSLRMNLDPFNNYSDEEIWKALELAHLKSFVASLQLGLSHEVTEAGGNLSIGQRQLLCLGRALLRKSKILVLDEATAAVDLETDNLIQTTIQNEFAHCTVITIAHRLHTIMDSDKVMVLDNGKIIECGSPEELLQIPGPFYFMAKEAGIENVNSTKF
Sequence of Bile salt export pump (O95342 whole entry): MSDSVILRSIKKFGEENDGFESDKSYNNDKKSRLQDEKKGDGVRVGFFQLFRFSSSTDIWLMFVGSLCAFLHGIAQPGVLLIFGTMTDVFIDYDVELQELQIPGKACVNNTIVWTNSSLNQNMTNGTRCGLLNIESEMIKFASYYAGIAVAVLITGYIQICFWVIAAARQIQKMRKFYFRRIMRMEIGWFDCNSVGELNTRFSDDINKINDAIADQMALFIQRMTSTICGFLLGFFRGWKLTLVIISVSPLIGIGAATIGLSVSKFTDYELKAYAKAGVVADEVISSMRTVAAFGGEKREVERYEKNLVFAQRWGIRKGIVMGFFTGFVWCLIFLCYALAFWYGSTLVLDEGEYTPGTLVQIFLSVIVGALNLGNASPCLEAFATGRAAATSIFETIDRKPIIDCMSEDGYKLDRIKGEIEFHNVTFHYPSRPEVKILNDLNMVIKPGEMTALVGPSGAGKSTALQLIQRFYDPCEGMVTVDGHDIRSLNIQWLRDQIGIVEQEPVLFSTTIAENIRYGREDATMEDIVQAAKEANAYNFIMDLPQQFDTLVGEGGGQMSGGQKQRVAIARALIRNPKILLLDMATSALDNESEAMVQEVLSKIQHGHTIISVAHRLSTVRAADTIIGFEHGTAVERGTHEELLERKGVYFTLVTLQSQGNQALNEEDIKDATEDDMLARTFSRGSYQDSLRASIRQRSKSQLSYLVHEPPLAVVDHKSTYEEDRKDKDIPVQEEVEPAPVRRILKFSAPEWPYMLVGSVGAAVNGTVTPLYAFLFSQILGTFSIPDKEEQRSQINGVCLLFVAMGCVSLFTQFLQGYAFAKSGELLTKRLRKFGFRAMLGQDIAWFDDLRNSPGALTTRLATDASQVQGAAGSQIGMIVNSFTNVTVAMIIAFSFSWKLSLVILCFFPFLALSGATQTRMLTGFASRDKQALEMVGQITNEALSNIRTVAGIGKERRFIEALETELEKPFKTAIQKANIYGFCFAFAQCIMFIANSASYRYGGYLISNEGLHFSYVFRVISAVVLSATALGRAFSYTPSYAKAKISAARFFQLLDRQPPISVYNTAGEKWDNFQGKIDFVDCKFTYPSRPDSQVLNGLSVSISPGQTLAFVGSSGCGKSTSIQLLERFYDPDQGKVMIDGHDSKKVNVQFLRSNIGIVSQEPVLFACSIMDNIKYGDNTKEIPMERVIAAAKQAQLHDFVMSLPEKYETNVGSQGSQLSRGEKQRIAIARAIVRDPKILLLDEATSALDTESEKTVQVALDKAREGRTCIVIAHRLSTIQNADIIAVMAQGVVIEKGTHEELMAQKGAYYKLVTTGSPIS

Structure (SMILES) | IC50 (Bile salt export pump) [µM] | IC50 [1] [µM] | IC50 [2] [µM] | IC50 [3] [µM]
CC(C)NCC(O)COc1ccc(COCCOC(C)C)cc1 (stereo not drawn) [BISOPROLOL FUMARATE] | > 133 | > 133 | > 133 | > 133
O=P1(N(CCCl)CCCl)NCCCO1 (stereo not drawn) [CYCLOPHOSPHAMIDE ANHYDROUS] | > 133 | > 133 | > 133 | > 133
CCOC(=O)C1=C(COCCN)NC(C)=C(C(=O)OC)C1c1ccccc1Cl (stereo not drawn) [AMLODIPINE] | > 133 | > 133 | > 133 | > 133
N#C[C@@H]1CCCN1C(=O)CNC12CC3CC(CC(O)(C3)C1)C2 [VILDAGLIPTIN] | > 133 | > 133 | > 133 | > 133
CC(C)c1ccc2oc3nc(N)c(C(=O)O)cc3c(=O)c2c1 [AMLEXANOX] | 104 | > 133 | 2.2 | > 133
CCC1(c2ccccc2)C(=O)NCNC1=O [PRIMIDONE] | > 133 | > 133 | > 133 | > 133
Nc1nc(Cl)nc2c1ncn2[C@@H]1O[C@H](CO)[C@@H](O)[C@@H]1F [CLOFARABINE] | > 133 | > 133 | > 133 | > 133
NC[C@H]1O[C@H](O[C@H]2[C@H](O)[C@@H](O[C@H]3O[C@H](CO)[C@@H](O)[C@H](N)[C@H]3O)[C@H](N)C[C@@H]2N)[C@H](O)[C@@H](O)[C@@H]1O [KANAMYCIN] | > 133 | > 133 | > 133 | > 133
CC(C)C[C@H](NC(=O)[C@H](Cc1ccccc1)NC(=O)c1cnccn1)B(O)O [BORTEZOMIB] | > 133 | > 133 | > 133 | > 133
CC[C@H](C)C(=O)O[C@H]1C[C@H](O)C=C2C=C[C@H](C)[C@H](CC[C@@H](O)C[C@@H](O)CC(=O)O)[C@H]21 [PRAVASTATIN SODIUM] | > 133 | > 133 | > 133 | 125
CC(C)c1nc(N(C)S(C)(=O)=O)nc(-c2ccc(F)cc2)c1/C=C/[C@@H](O)C[C@@H](O)CC(=O)O [ROSUVASTATIN CALCIUM] | > 133 | > 133 | 26.8 | 58.3
NC1=NC(=O)C(c2ccccc2)O1 (stereo not drawn) [PEMOLINE] | > 133 | > 133 | > 133 | > 133
NS(=O)(=O)c1cc2c(cc1Cl)NCNS2(=O)=O [HYDROCHLOROTHIAZIDE] | > 133 | > 133 | > 133 | > 133
CO/N=C1\CN(c2nc3c(cc2F)c(=O)c(C(=O)O)cn3C2CC2)CC1CN (stereo not drawn) [GEMIFLOXACIN MESYLATE] | > 133 | > 133 | 73.2 | > 133
NC(=O)c1ncn([C@@H]2O[C@H](CO)[C@@H](O)[C@H]2O)n1 [RIBAVIRIN] | > 133 | > 133 | > 133 | > 133
C=CCc1ccccc1OCC(O)CNC(C)C (stereo not drawn) [ALPRENOLOL] | > 133 | > 133 | > 133 | > 133
CS(=O)(=O)OCCCCOS(C)(=O)=O [BUSULFAN] | > 133 | > 133 | > 133 | > 133
C#CCN(C)[C@H](C)Cc1ccccc1 [SELEGILINE HYDROCHLORIDE] | > 133 | > 133 | > 133 | > 133
CCOC(=O)[C@H](CCc1ccccc1)N[C@@H](C)C(=O)N1[C@H](C(=O)O)C[C@@H]2CCC[C@@H]21 | > 133 | > 133 | > 133 | > 133

Structure (SMILES) | IC50 (Bile salt export pump) [µM] | IC50 [1] [µM] | IC50 [2] [µM] | IC50 [3] [µM]
CNCC[C@@H](Oc1ccccc1C)c1ccccc1 [ATOMOXETINE HYDROCHLORIDE] | > 133 | > 133 | > 133 | > 133
O=P(O)(O)C(O)(Cn1ccnc1)P(=O)(O)O [ZOLEDRONIC ACID] | > 133 | > 133 | > 133 | > 133
COC(=O)[C@@H]1CC2=CC(=O)CC[C@]2(C)[C@@]23O[C@@H]2C[C@@]2(C)[C@@H](CC[C@@]24CCC(=O)O4)[C@H]13 [EPLERENONE] | > 133 | > 133 | > 133 | > 133
C/C(=C\C(=O)OCCCCCCCCC(=O)O)C[C@@H]1OC[C@H](C[C@@H]2O[C@H]2[C@@H](C)[C@H](C)O)[C@@H](O)[C@H]1O [MUPIROCIN] | > 133 | > 133 | > 133 | > 133
Cc1cccn2c(=O)c(-c3nnn[nH]3)cnc12 [PEMIROLAST POTASSIUM] | > 133 | > 133 | > 133 | > 133
O=C(O)c1ccccc1-c1c2ccc(=O)cc-2oc2cc(O)ccc12 | > 133 | > 133 | > 133 | > 133
CCCN1C[C@H](CSC)C[C@@H]2c3cccc4[nH]cc(c34)C[C@H]21 [PERGOLIDE MESYLATE] | > 133 | > 133 | > 133 | > 133
C[C@]12C/C(=C/O)C(=O)C[C@@H]1CC[C@@H]1[C@@H]2CC[C@@]2(C)[C@H]1CC[C@]2(C)O [OXYMETHOLONE] | 48.7 | > 133 | > 133 | > 133
CC1(C)O[C@@H]2C[C@H]3[C@@H]4C[C@H](F)C5=CC(=O)C=C[C@]5(C)[C@H]4[C@@H](O)C[C@]3(C)[C@]2(C(=O)CO)O1 [FLUNISOLIDE] | > 133 | > 133 | > 133 | > 133
C[C@@H]1CCC[C@H](C)N1NC(=O)c1ccc(Cl)c(S(N)(=O)=O)c1 [CLOPAMIDE] | > 133 | > 133 | > 133 | > 133
CN(C)c1ccc(O)c2c1C[C@H]1C[C@H]3[C@H](N(C)C)C(O)=C(C(N)=O)C(=O)[C@@]3(O)C(O)=C1C2=O [MINOCYCLINE HYDROCHLORIDE] | > 133 | > 133 | > 133 | > 133
Cc1c(C(=O)NN2CCCCC2)nn(-c2ccc(Cl)cc2Cl)c1-c1ccc(Cl)cc1 [RIMONABANT] | 25 | > 133 | > 133 | > 133
CCn1cc(C(=O)O)c(=O)c2ccc(C)nc21 [NALIDIXIC ACID] | > 133 | > 133 | 57.5 | > 133
CC[C@]1(O)C[C@H]2CN(CCc3c([nH]c4ccccc34)[C@@](C(=O)OC)(c3cc4c(cc3OC)N(C=O)[C@H]3[C@@](O)(C(=O)OC)[C@H](OC(C)=O)[C@]5(CC)C=CCN6CC[C@]43[C@@H]65)C2)C1 [VINCRISTINE SULFATE] | > 133 | > 133 | > 133 | > 133
C[C@@H]1CN(c2c(F)c(N)c3c(=O)c(C(=O)O)cn(C4CC4)c3c2F)C[C@H](C)N1 [SPARFLOXACIN] | > 133 | > 133 | > 133 | > 133
Nc1nc2c(c(=O)[nH]1)N(C=O)C(CNc1ccc(C(=O)N[C@@H](CCC(=O)O)C(=O)O)cc1)CN2 (stereo partly drawn) [LEUCOVORIN CALCIUM] | > 133 | > 133 | > 133 | > 133
COc1ccc(Cc2nccc3cc(OC)c(OC)cc23)cc1OC [PAPAVERINE] | > 133 | > 133 | 23.1 | > 133
O=C(NC1CCN(CCc2c[nH]c3ccccc23)CC1)c1ccccc1 [INDORAMIN] | > 133 | > 133 | > 133 | > 133
